Type in all cases: functional
Common to all, as to details: read-out: IZ

One experiment concerns Escherichia coli. The experiment in a line: Antibacterial activity against Escherichia coli MTCC 443 at 1 ug/ml under overnight incubation condition by paper disc method.
The subject of another experiment is Bacillus subtilis. Kind of experiment: Antibacterial activity against Bacillus subtilis MTCC 441 at 1 ug/ml under overnight incubation condition by paper disc method.
Another experiment concerns Pseudomonas aeruginosa. Kind of experiment: Antibacterial activity against Pseudomonas aeruginosa MTCC 424 at 1 ug/ml under overnight incubation condition by paper disc method.
The subject of a further experiment is Staphylococcus aureus. The experiment in a line: Antibacterial activity against Staphylococcus aureus MTCC 96 at 1 ug/ml under overnight incubation condition by paper disc method.

Structures are written as SMILES.

Turning to `Ic1ccc(NC2OCCc3ccccc32)nc1` (stereo not given), the zone of inhibition at 1 µg/mL in the experiment with Escherichia coli was determined as 3.5 mm; in the experiment on Bacillus subtilis, 6 mm; with Pseudomonas aeruginosa it was 4.5 mm; in the experiment with Staphylococcus aureus it was 3 mm.
For `CC1COc2c(N3CCN(C)CC3)c(F)cc3c(=O)c(C(=O)O)cn1c23` (stereo not given) [OFLOXACIN], the zone of inhibition at 1 µg/mL in the experiment with Escherichia coli is 11 mm; in the experiment on Bacillus subtilis it was 10 mm.
For the molecule `Fc1ccc(-c2cnc(NC3OCCc4ccccc43)s2)cc1` (stereo not given), the zone of inhibition at 1 µg/mL turned out to be 6 mm with Escherichia coli, 2.5 mm with Bacillus subtilis, 5 mm with Pseudomonas aeruginosa and 3 mm with Staphylococcus aureus.
On the same counts, the results for `Cc1ccc2nc(NC3OCCc4ccccc43)sc2c1` (stereo not given) are 2.5 mm, 2.5 mm, 2.5 mm and 2.5 mm.
The corresponding values for `Brc1ccc2nc(NC3OCCc4ccccc43)sc2c1` (stereo not given) are 2.5 mm, 2.5 mm, 5 mm and 5 mm.
The corresponding values for `Fc1ccc2nc(NC3OCCc4ccccc43)sc2c1` (stereo not given) are 4 mm, 4.5 mm, 3 mm and 2.5 mm.
In the case of `O=[N+]([O-])c1ccc(NC2OCCc3ccccc32)cc1` (stereo not given), the zone of inhibition at 1 µg/mL in the experiment with Escherichia coli was 4.5 mm; in the experiment with Bacillus subtilis, 5 mm; in the experiment with Pseudomonas aeruginosa, 4 mm; in the experiment with Staphylococcus aureus, 3 mm.
On the same counts, the results for `COc1cccc2sc(NC3OCCc4ccccc43)nc12` (stereo not given) are 3 mm, 3 mm, 4 mm and 2.5 mm.
With `Cc1cccc(NC2OCCc3ccccc32)n1` (stereo not given), the zone of inhibition at 1 µg/mL in the experiment with Escherichia coli turned out to be 3 mm; in the experiment with Bacillus subtilis, 4 mm; in the experiment with Pseudomonas aeruginosa, 6 mm; in the experiment with Staphylococcus aureus, 4.5 mm.
As for `c1ccc2c(c1)CCOC2Nc1nc2ccccc2s1` (stereo not given), the zone of inhibition at 1 µg/mL with Escherichia coli amounted to 2.5 mm; in the experiment with Bacillus subtilis it was 2.5 mm; in the experiment on Pseudomonas aeruginosa, 3 mm; with Staphylococcus aureus it was 3 mm.
For the molecule `CCOc1ccc2nc(NC3OCCc4ccccc43)sc2c1` (stereo not given), the zone of inhibition at 1 µg/mL was 6.5 mm with Escherichia coli, 7.5 mm with Bacillus subtilis, 5 mm in the experiment with Pseudomonas aeruginosa and 6 mm in the experiment on Staphylococcus aureus.
With `CCn1cc(C(=O)O)c(=O)c2cc(F)c(N3CCNCC3)cc21` [NORFLOXACIN], the values for the zone of inhibition at 1 µg/mL in the experiment with Pseudomonas aeruginosa and in the experiment with Staphylococcus aureus were 9.5 mm and 7 mm, respectively.
In the case of `Cc1nc(NC2OCCc3ccccc32)sc1-c1ccccc1` (stereo not given), the zone of inhibition at 1 µg/mL was found to be 2.5 mm in the experiment on Escherichia coli, 2.5 mm in the experiment with Bacillus subtilis, 3 mm with Pseudomonas aeruginosa and 2.5 mm in the experiment with Staphylococcus aureus.
For `Cc1cc(Br)cnc1NCCc1ccccc1C=O`, the zone of inhibition at 1 µg/mL in the experiment on Escherichia coli is 3.5 mm; with Bacillus subtilis it was 3 mm; with Pseudomonas aeruginosa, 5 mm; in the experiment with Staphylococcus aureus it was 4 mm.
On the same counts, the results for `Fc1nc(NC2OCCc3ccccc32)sc1F` (stereo not given) are 3 mm, 3 mm, 4 mm and 3 mm.
On to `FC(F)(F)c1ccc2nc(NC3OCCc4ccccc43)sc2c1` (stereo not given), for which the zone of inhibition at 1 µg/mL with Escherichia coli, in the experiment with Bacillus subtilis, in the experiment on Pseudomonas aeruginosa and with Staphylococcus aureus was 2.5 mm in each case.
